Type in all cases: in vivo, rat
Series [1] relates to castrate Sprague-Dawley male rats. The series can be described thus: Androgenic activity, Hershberger test (ventral prostate weight). Conditions: for Biological activity Potency Ratio: oral in 10% ethanol/sesame oil, methyltestosterone standard = 1.00, FIG. 11. How it is done:
The androgenic activity was tested as follows (see, Hershberger et al., Proc. Soc. Exptl. Biol. Med., 83: 175-180 (1953)). Immature (approximately 21 day old) male rats of the Sprague-Dawley strain were orchidectomized under METOFANE® anesthesia and randomly assigned to groups of ten animals for each dose level of test material and vehicle controls. Animals were maintained under standard conditions of housing and had free access to food and water. Illumination was controlled for 14-hour periods of light and 10 hours of darkness. Test compounds were dissolved in 10% ethanol/sesame oil and administered by gavage (oral) or subcutaneous injection daily for seven consecutive days starting on the day of surgery. Animals were sacrificed 24 hours after the last dose and the ventral prostate and seminal vesicles excised, cleaned of fat and connective tissue, blotted on moist filter paper and weighed to the nearest 0.1 mg. Ventral prostate weight was used as the endpoint because ventral prostate is the more sensitive organ to androgenic stimulation.
Statistical analysis was performed by conventional methods using a PROPHET data management system operating on SUN Microsystems OS 4.1.1 (see e.g., Bliss, Cl (1952) The Statistics of Bioassay, New York, Academic Press; Hollister, C (1988), Nucleic Acids Research, 16:1873-1875.
Each data point represents the mean (n=10) and standard error of the mean (SEM) prostate weight for each dose level. The potency ratio and 95% confidence index are set forth below.

The test system is the same in series [2]. Briefly: Duration of androgenic activity after a single subcutaneous injection (ventral prostate weight, AUC). The settings on record: for AUC of ventral prostate weight (duration of androgenic activity), standards: historical data, 1.2 mg single subcutaneous injection, testosterone undecanoate in aqueous suspension, testosterone enanthate in sesame oil; for AUC of ventral prostate weight (duration of androgenic activity): 14 weeks. The method, then: Duration of androgenic activity was determined as follows. Immature (22 days of age) male rats of the Sprague-Dawley CD strain were orchidectomized under METOFANE anesthesia and randomly assigned to groups of forty or more animals. Animals were maintained under standard conditions of housing and had free access to food and water. Illumination was controlled for 14-hour periods of light and 10 hours of darkness. Animals received a single subcutaneous injection of 0.6 mg of test material in aqueous suspending vehicle (ASV) and/or an oily vehicle (10% ethanol/sesame oil, sesame oil containing 5 mg/ml chlorobutanol as a preservative or ethyl oleate) on the day of surgery. Controls received vehicle alone. Testosterone enanthate in sesame oil was used as a standard. In cases where the test material was not solid at room temperature, i.e., a wax or oil, 10% ethanol/sesame oil or ethyl oleate was used as a vehicle. Five rats from each group were sacrificed at weekly or biweekly intervals and seminal vesicle and ventral prostate glands were excised, cleaned of adherent fat and connective tissue and weighed to the nearest 0.1 mg. Ventral prostate weight was used as the endpoint because it is the more sensitive organ to androgenic stimulation. Area under the curve (AUC) was calculated by the trapezoidal rule.
Each data point represents the mean (n=5) and standard error of the mean (SEM) prostate weight for each time period. […] In FIG. 8, the data for 1.2 mg dose groups are shown together with historical data for testosterone undecanoate in aqueous suspension and testosterone enanthate in sesame oil as standards. Both testosterone undecanoate and testosterone enanthate are commercially available.

Series [3] can be described thus: Serum levels of dimethandrolone (CDB-1321) and immunoreactive metabolites by radioimmunoassay. More on the design: AUC of serum concentration of dimethandrolone and immunoreactive metabolites: unit not given here. Conditions: for AUC of serum concentration of dimethandrolone and immunoreactive metabolites: n=5, FIG. 9. How it is done:
Serum levels of testosterone and CDB-1321 were determined as follows. Rats from a duration of androgenic activity study were exsanguinated at autopsy, serum prepared by allowing blood to clot at room temperature and the sample frozen for subsequent radioimmunoassay. A radioimmunoassay for the free alcohol, 7a, 11β-dimethyl-19-nortestosterone, was developed using antisera generated in rabbits against the 3-carboxymethyloxime-BSA conjugate and employing the corresponding histamine conjugate for iodination as tracer.

The test system of series [4] is luteinizing hormone (rLH). Briefly: Serum rLH in castrate male rats. How it is done:
FIG. 14 depicts the serum levels of rLH as a function of time for groups 2 and 4 of the animals. Serum rLH were measured in the blood from castrate male rats following fourteen daily 12 mg/kg oral doses of CDB-4719A (dimethandrolone 17β-decylcarbonate, filled circles, group 2) or CDB-4521C (dimethandrolone 17β-undecanoate, open triangles, group 4) in 10% ethanol/sesame oil on days 0-13. Samples from weeks −1 to 6 or from weeks 7 to 9 and repeats were assayed as described in the protocols MEL-480AD using [^125I]-rLH or MEL-480AE, AG using [^125I]-rLH. The limit of detection shown as dotted line, or EC90, was the mean of 0.13, 0.14, or 0.16 in the first assay and 0.17, 0.22, or 0.21 ng/ml in the second series of assays based on 200 μl of serum per tube.
FIG. 15 depicts the serum levels of rLH as a function of time for groups 1 and 3 of the animals. Serum rLH were measured in the blood from castrate male rats following a single 12 mg/kg subcutaneous injection of CDB-4719A (dimethandrolone 17β-decylcarbonate, filled circles, group 1) or CDB-4521C (dimethandrolone 17β-undecanoate, open triangles, group 3) in an aqueous suspending vehicle on day 0. Samples from weeks −1 to 6 or from weeks 7 to 22 and repeats were assayed as described in the protocols MEL-480AD using [^125I]-rLH or MEL-480AE, AG, AH using [^125I]-rLH. The limit of detection shown as dotted line, or EC90, was the mean of 0.13, 0.14, or 0.16 in the first assay and 0.17, 0.22, or 0.21 ng/ml in the second series of assays based on 200 μl of serum per tube.
Carbonates of the invention, in embodiments, can be used to suppress luteinizing hormone in a mammal for extended periods of time. […] CDB-4719A (dimethandrolone 17β-decylcarbonate) was administered to castrate male rats, daily at 12 mg/kg oral doses, and CDB-4521C (dimethandrolone 17β-undecanoate) was administered in 10% ethanol/sesame oil, on days 0-13. […] This observation could have advantageous clinical implications, for example, in obtaining sustained suppression of the luteinizing hormone or hormone replacement therapy. In addition, this could have an advantage by providing a facile treatment using oral compositions such as tablets or capsules of the carbonates of the invention in suppressing hormone levels. Such treatment can be advantageous relative to a treatment involving parenteral (e.g., subcutaneous) administration of a drug such as the ester drug. Patient compliance is better with oral formulations than injections.
FIG. 15 provides a comparison between CDB-4719A (dimethandrolone 17β-decylcarbonate) and CDB-4521C (dimethandrolone 17β-undecanoate). A single dose (12 mg/kg) of the compound was administered to castrate male rats by subcutaneous injection in an aqueous suspending vehicle on day 0. The serum rLH concentration was monitored over a 22-week period and beyond.

Setting [5] is: fourteen daily 12 mg/kg oral doses in 10% ethanol/sesame oil, days 0-13, FIG. 14.
Setting [6] is: single subcutaneous injection of 0.6 mg in aqueous suspending vehicle.
Setting [7] is: single subcutaneous injection of 1.2 mg in aqueous suspending vehicle.
The mark [8] stands for this setting: oral, daily for 7 days in 10% ethanol/sesame oil, CDB 110 (methyltestosterone) = 1.000 assigned, FIG. 5, ranges did not pass all significance tests.
The mark [9] stands for this setting: subcutaneous injection, daily for 7 days, CBD-111 (testosterone) = 1.000 assigned, FIG. 6, footnote 2 values did not pass all significance tests.

Turning to `C[C@]12CCC(=O)C=C1CC[C@@H]1[C@@H]2CC[C@@]2(C)[C@H]1CC[C@]2(C)O` [CDB-110B, methyltestosterone, reference compound], the “Biological activity Potency Ratio” value in series [1] is recorded as 1.00 (assigned).
Consider `CCCCCCC(=O)O[C@H]1CC[C@H]2[C@@H]3CCC4=CC(=O)CC[C@]4(C)[C@H]3CC[C@]12C` [CDB-112, testosterone enanthate, reference compound], for which the “AUC of ventral prostate weight (duration of androgenic activity), standards” value in series [2] is recorded as 760 mg·week.
For the molecule `C[C@@H]1CC2=CC(=O)CC[C@@H]2[C@@H]2[C@@H]1[C@@H]1CC[C@H](O)[C@@]1(C)C[C@@H]2C` [CDB-1321, 7a, 11β-dimethyl-19-nortestosterone, reference compound], in series [3] (first 3 weeks, limit of detection 63 pg/ml), the “Serum levels of the free alcohol after giving the free alcohol itself” value is given as “barely above the limit of detection”.
As for `CCCCCCCCCCC(=O)O[C@H]1CC[C@H]2[C@@H]3CCC4=CC(=O)CC[C@]4(C)[C@H]3CC[C@]12C` [CDB-3122E, testosterone undecanoate, reference compound], the “AUC of ventral prostate weight (duration of androgenic activity), standards” value in series [2] turned out to be 494 mg·week.
`CCCCCCCCCCC(=O)O[C@H]1CC[C@H]2[C@H]3[C@H]([C@@H](C)C[C@]12C)[C@H]1CCC(=O)C=C1C[C@H]3C` [CDB-4521C, dimethandrolone 17β-undecanoate, reference compound]: in series [4] (setting [5]), the “Serum rLH after administration was discontinued” value is “bounced back and increased beyond the pretreatment level”; the “Serum rLH during administration” value is “remained suppressed”. Besides, the “Serum rLH up to 16 weeks post administration” value in series [4] (single 12 mg/kg subcutaneous injection in aqueous suspending vehicle on day 0, FIG. 15) is “remains suppressed”. Also, the “Serum rLH after 16 weeks” value in series [4] (single 12 mg/kg subcutaneous injection in aqueous suspending vehicle on day 0, monitored over 22 weeks, FIG. 15) is “rose after 16 weeks”.
Regarding `COC(=O)O[C@H]1CC[C@H]2[C@H]3[C@H]([C@@H](C)C[C@]12C)[C@H]1CCC(=O)C=C1C[C@H]3C` [CDB-4718, 17β-Methoxycarbonyloxy-7α,11β-dimethylestr-4-en-3-one], the “Duration of androgenic activity (in words)” value in series [2] (single subcutaneous injection in aqueous vehicle) is “short duration of action”. For the same molecule, the “AUC of ventral prostate weight (duration of androgenic activity)” value in series [2] (setting [6]) was found to be 581 mg·week; in series [2] (setting [7]), 789 mg·week. Besides, the “Androgenic activity Potency Ratio” value in series [1] (setting [8]) is “about two and one-half times”; in series [1] (oral, daily for 7 days in 10% ethanol/sesame oil, CDB 110 (methyltestosterone) = 1.000 assigned, FIG. 5, ranges did not pass all significance tests, listed as 4718), 2.609^1; in series [1] (setting [9]) it was 10.4-47.5; in series [1] (subcutaneous injection, daily for 7 days, CBD-111 (testosterone) = 1.000 assigned, FIG. 6, footnote 2 values did not pass all significance tests, listed as 4718) it was 10.4-47.5^1,2. Besides, the “AUC of serum concentration of dimethandrolone and immunoreactive metabolites” value in series [3] (setting [6]) was 2848; in series [3] (setting [7]), 3336.
In the case of `CCCCCCOC(=O)O[C@H]1CC[C@H]2[C@H]3[C@H]([C@@H](C)C[C@]12C)[C@H]1CCC(=O)C=C1C[C@H]3C` [CDB-4731, 17β-Hexyloxycarbonyloxy-7α,11β-dimethylestr-4-en-3-one], the “Androgenic activity Potency Ratio” value in series [1] (setting [8]) was 1.18-3.27; in series [1] (oral, daily for 7 days in 10% ethanol/sesame oil, CDB 110 (methyltestosterone) = 1.000 assigned, FIG. 5, ranges did not pass all significance tests, listed as 4731), 1.18-3.27^1,2; in series [1] (setting [9]) it was 32; in series [1] (subcutaneous injection, daily for 7 days, CBD-111 (testosterone) = 1.000 assigned, FIG. 6, footnote 2 values did not pass all significance tests, listed as 4731), 32.0^1,2.
Regarding `CC1C[C@@]2(C)C(=CC[C@@H]2OC(=O)OC23CC4CC(CC(C4)C2)C3)[C@H]2[C@H]1[C@H]1CCC(=O)C=C1C[C@H]2C` (stereo partly drawn) [CDB-4750A, 17β-Adamantyloxycarbonyloxy-7α,11-dimethylestra-4,14-dien-3-one], the entries for the “AUC of ventral prostate weight (duration of androgenic activity)” value in series [2] (setting [6]) and in series [2] (setting [7]) were 326 mg·week and 759 mg·week, respectively.
For `CCCCCCCCCCCCOC(=O)OC1CC[C@H]2[C@@H]3CCC4=CC(=O)CC[C@@H]4[C@H]3[C@@H](C)C[C@]12C` (stereo partly drawn) [CDB-4754, 11β-Methyl-17-dodecyloxycarbonyloxy estr-4-en-3-one], the entries for the “AUC of ventral prostate weight (duration of androgenic activity)” value in series [2] (setting [6]) and in series [2] (setting [7]) were 564 mg·week and 974 mg·week, respectively.
As for `CCCCCCCCCC(=O)OC1CCC2C3C(C)CC4=CC(=O)CCC4C3C(C)CC12C` (stereo not drawn) [CDB-4756, dimethandrolone decanoate, reference compound], the “Biological activity Potency Ratio” value in series [1] is given as 2.13-7.56.
With `CCCCCCCCCCOC(=O)O[C@H]1CC[C@H]2[C@@H]3CCC4=CC(=O)CC[C@@H]4[C@H]3[C@@H](C)C[C@]12C` [CDB-4757, 11β-Methyl-17β-decyloxycarbonyloxyestr-4-en-3-one], the “Biological activity Potency Ratio” value in series [1] is 1.96.

These data come from patent publication US7820642B2, “Nandrolone 17β-carbonates” (The United States of America as represented by the …, priority 2005, dated 2010).
